Results published in PMC8408311 (Diabetologia, 2021).
Read-outs that look alike come from different tables or passages of the source. Where no end group is shown, it is not given here.

Columns and labels:
[1] = system: primary cilium of islet beta cells; assay: Cilia Ca2+ imaging in mouse islets; type: cell-based; settings: GABA 1-10 nM; GABAB-receptor agonist Baclofen; Vigabatrin (inhibition of GABA degradation)
male Wistar rats = assay: 30-min filament middle cerebral artery occlusion; type: in vivo, rat; settings: 48 h after MCAO; healthy 18 points, maximal deficit 3 points
[2] = system: mouse cardiac endothelial cells (MCECs); assay: Methylglyoxal treatment of mouse cardiac endothelial cells; type: cell-based
H9C2 cells = assay: 2-NBD-Glucose uptake; type: cell-based; settings: for 2-NBD-Glucose uptake after MG: 25μM MG 24h, after 60 min; for 2-NBD-Glucose uptake after insulin: 100nM 30min, 20 minutes
[3] = Sodium-phenylbutyrate 2-week crossover trial in type 2 diabetes
INS1E cells = assay: Fatty acid toxicity in INS1E cells; type: cell-based, rat; settings: 24 h
[4] = SURPASS-2, add-on to metformin in type 2 diabetes; type: in vivo, human; settings: TZP range over 5-15 mg; SEMA 1 mg
[5] = 3-month exercise training with carnosine or placebo in overweight elderly; type: in vivo, human
[6] = Ciprofibrate 5-week crossover study in prediabetic male volunteers; type: in vivo, human
[7] = Contribution of HFCS-55 fructose to hepatic fatty acid synthesis, 13C/2H NMR; type: in vivo, mouse
[8] = SUSTAIN 10 post hoc analysis by baseline SGLT-2i; type: in vivo, human
INS-1 832/13 cells = assay: mRNA expression in INS-1 832/13 cells under ER stress; type: cell-based, rat
[9] = type: in vivo, human; settings: once weekly
[10] = RESTORE-2 naive cohort, retrospective propensity score matched study; type: in vivo, human; settings: for Incidence rate of blood glucose <54 mg/dl / Incidence rate of blood glucose ≤70 mg/dl: during 6 months; for FBG change at 6 months / FBG reduction at 6 months / HbA1c reduction from baseline to 12 months: in vivo; for HbA1c change from baseline to 6 months: propensity score matched, 357 per cohort
Arrb2-/- beta cells = assay: Incretin responses in Arrb2-/- beta cells; type: cell-based, mouse
[11] = Insulin icodec titration trial, CGM hypoglycaemia duration, insulin-naive T2D; type: in vivo, human; settings: 4.4-7.2 mmol/L ±4 U/day
[12] = type: in vivo, human; settings: comparator arm
[13] = 2-step hyperinsulinemic-euglycemic clamp
[14] = training combined with carnosine 2g/day

Compound: NCC(CC(=O)O)c1ccc(Cl)cc1 (centres unmarked) [Baclofen]
- Increase of occurrence of cilia Ca2+ flashes [1]: 3-4 fold

Compound: NCCCC(=O)O [GABA, Gamma aminobutyric acid]
- Increase of occurrence of cilia Ca2+ flashes [1]: 3-4 fold

Compound: CN(C)C(=N)N=C(N)N [MET, metformin]
- Garcia score (neurological deficit) (male Wistar rats): 12.0 (6.5; 12.5) points

Compound: CC(=O)C=O [MG, methylglyoxal]
- Hspa9 mRNA, mean ([2]; 500 μM, Hspa1a/Hspa1b KO cells): 1.52 fold
- Hspa9 protein, mean ([2]; 500 μM, Hspa1a/Hspa1b KO cells): 3.17
- Hspd1 mRNA, mean ([2]; 500 μM, Hspa1a/Hspa1b KO cells): 1.57 fold
- Hspd1 protein, mean ([2]; 500 μM, Hspa1a/Hspa1b KO cells): 3.84
- Drp1 mRNA ([2]; 500 μM, wild-type cells): 1.39 fold
- Hspa1a mRNA, mean ([2]; 500 μM, wild-type cells): 1.57 fold
- Hspa1a/Hspa1b protein level, mean ([2]; 500 μM, wild-type cells): 1.56 fold
- Hspa1b mRNA, mean ([2]; 500 μM, wild-type cells): 1.78 fold
- Hspa9 mRNA, mean ([2]; 500 μM, wild-type cells): 1.42 fold
- Hspa9 protein, mean ([2]; 500 μM, wild-type cells): 1.96 fold
- Hspd1 mRNA, mean ([2]; 500 μM, wild-type cells): 2.11 fold
- Hspd1 protein, mean ([2]; 500 μM, wild-type cells): 2.35 fold
- Drp1 mRNA, mean ([2]; Hspa1a/Hspa1b KO cells): 2.11
- Bnip3, mean ([2]; after MG treatment): 0.39 fold
- Parkin, mean ([2]; after MG treatment): 0.45 fold
- Pink1, mean ([2]; after MG treatment): 0.69 fold
- 2-NBD-Glucose uptake after MG (H9C2 cells; 20mM glucose, printed 54% vs 44%): 54%
- 2-NBD-Glucose uptake after MG (H9C2 cells; 30 mM glucose, printed 50% vs 39%): 50%

Compound: O=C(O)CCCc1ccccc1 [NaPB, sodium-phenylbutyrate]
- Peripheral insulin sensitivity, higher than placebo [3, 13]: 27%
- ΔRd (insulin-stimulated glucose disposal rate minus baseline) [3, 13]: 13.2 ± 1.8 µmol/kg/min
- Increase of plasma phenylbutyrate levels vs placebo ([3]; 4.8 g/m²/day for 2 weeks, LCMS): 5.5 fold
- Fasting glucose ([3]; after 2 weeks): 7.8 ± 0.4 mmol/L
- Fasting plasma isoleucine ([3]; after 2 weeks): 105.2 ± 3.5 µmol/L
- Fasting plasma leucine ([3]; after 2 weeks): 168.7 ± 5.1 µmol/L
- Fasting plasma valine ([3]; after 2 weeks): 275.3 ± 10.3 µmol/L
- Peripheral insulin-mediated glucose oxidation ([3]; clamp): 11.9 ± 0.7 µmol/kg/min
- ΔRER (metabolic flexibility) ([3]; clamp): 0.09 ± 0.01
- O2-flux, maximally coupled mitochondrial respiration fueled by pyruvate ([3]; skeletal muscle ex vivo): 74.0 ± 4.1 pmol/s/mg

Compound: CCCCCCCC/C=C\CCCCCCCC(=O)O [OA, oleate]
- Cell viability (INS1E cells; INS1E-ctr cells, 500 μM each fatty acid, MTT): 91%

Compound: CCCCCCCCCCCCCCCC(=O)O [PA, palmitate]
- Viability decrease stronger than in INS1E-ctr (INS1E cells; INS1E-SPL cells, 500 μM): ~ 25%
- Cell viability loss (INS1E cells; INS1E-SPP cells, 500 μM): 20%

Compound: CC[C@H](C)[C@H](NC(=O)[C@H](Cc1ccccc1)NC(=O)[C@H](CCC(=O)O)NC(=O)[C@H](CCCCNC(=O)COCCOCCNC(=O)COCCOCCNC(=O)CC[C@H](NC(=O)CCCCCCCCCCCCCCCCC(=O)O)C(=O)O)NC(=O)[C@H](C)NC(=O)[C@H](C)NC(=O)[C@H](CCC(N)=O)NC(=O)CNC(=O)[C@H](CCC(=O)O)NC(=O)[C@H](CC(C)C)NC(=O)[C@H](Cc1ccc(O)cc1)NC(=O)[C@H](CO)NC(=O)[C@H](CO)NC(=O)[C@@H](NC(=O)[C@H](CC(=O)O)NC(=O)[C@H](CO)NC(=O)[C@@H](NC(=O)[C@H](Cc1ccccc1)NC(=O)[C@@H](NC(=O)CNC(=O)[C@H](CCC(=O)O)NC(=O)C(C)(C)NC(=O)[C@@H](N)Cc1cnc[nH]1)[C@@H](C)O)[C@@H](C)O)C(C)C)C(=O)N[C@@H](C)C(=O)N[C@@H](Cc1c[nH]c2ccccc12)C(=O)N[C@@H](CC(C)C)C(=O)N[C@H](C(=O)N[C@@H](CCCNC(=N)N)C(=O)NCC(=O)N[C@@H](CCCNC(=N)N)C(=O)NCC(=O)O)C(C)C [SEMA, semaglutide]
- Diarrhoea [4]: 12%
- Nausea [4]: 18%
- Vomiting [4]: 8%

Compound: C=CC(N)CCC(=O)O (centres unmarked) [Vigabatrin]
- Increase of occurrence of cilia Ca2+ flashes [1]: 3-4 fold

Compound: NCCCC(O)(P(=O)(O)O)P(=O)(O)O [alendronate]
- Crude OR of developing type 2 diabetes (ever use): 0.93
- Multiple adjusted OR of developing type 2 diabetes (ever use): 0.64
- Adjusted OR of developing type 2 diabetes (more than 8 years of use): 0.47

Compound: NCCC(=O)N[C@@H](Cc1cnc[nH]1)C(=O)O [carnosine]
- Stimulation of coupled mitochondrial respiration rate in permeabilized muscle fibers, compared to exercise alone ([5]; exercise with carnosine): 36.5%
- Improvement in aerobic fitness (VO2max) [5, 14]: 14.8%
- Improvement in metabolic flexibility (ΔRQ) [5, 14]: 7.3%
- Improvement in sit-to-stand test ([5]; training combined with carnosine 2g/day, 3 months): 9.2%

Compound: CC(C)(Oc1ccc(C2CC2(Cl)Cl)cc1)C(=O)O (centres unmarked) [ciprofibrate]
- Hepatic lipid content ([6]; 100 mg/day for 5 weeks): 10.4 ± 10.0%
- Serum triglycerides ([6]; 100 mg/day for 5 weeks): 1.57 ± 1.05 mmol/L
- Myocardial net glucose uptake ([6]; 18F-FDG PET during clamp): 0.040 ± 0.024 ml/100ml/min/mIU insulin
- Net hepatic glucose uptake (Ki) ([6]; 18F-FDG PET during hyperinsulinemic euglycemic clamp): 0.7 ± 0.2 ml/100ml/min

Compound: O=C(CO)[C@@H](O)[C@H](O)[C@H](O)CO [fructose]
- contribution of acetyl-CoA to oleate synthesis ([7]; HFHS mice): 7 ± 2%
- contribution of acetyl-CoA to palmitoleate synthesis ([7]; HFHS mice): 7 ± 2%
- contribution of acetyl-CoA to the synthesis of SFA ([7]; HFHS mice): 18 ± 3%
- contribution of acetyl-CoA to oleate synthesis ([7]; HS mice): 16 ± 3%
- contribution of acetyl-CoA to palmitoleate synthesis ([7]; HS mice): 18 ± 3%
- contribution of acetyl-CoA to the synthesis of SFA ([7]; HS mice, mean ± standard error): 28 ± 4%

Compound: CC[C@H](C)[C@H](NC(=O)[C@H](Cc1ccccc1)NC(=O)[C@H](CCC(=O)O)NC(=O)[C@H](CCCCNC(=O)COCCOCCNC(=O)COCCOCCNC(=O)CC[C@H](NC(=O)CCCCCCCCCCCCCCCCC(=O)O)C(=O)O)NC(=O)[C@H](C)NC(=O)[C@H](C)NC(=O)[C@H](CCC(N)=O)NC(=O)CNC(=O)[C@H](CCC(=O)O)NC(=O)[C@H](CC(C)C)NC(=O)[C@H](Cc1ccc(O)cc1)NC(=O)[C@H](CO)NC(=O)[C@H](CO)NC(=O)[C@@H](NC(=O)[C@H](CC(=O)O)NC(=O)[C@H](CO)NC(=O)[C@@H](NC(=O)[C@H](Cc1ccccc1)NC(=O)[C@@H](NC(=O)CNC(=O)[C@H](CCC(=O)O)NC(=O)C(C)(C)NC(=O)[C@@H](N)Cc1cnc[nH]1)[C@@H](C)O)[C@@H](C)O)C(C)C)C(=O)N[C@@H](C)C(=O)N[C@@H](Cc1c[nH]c2ccccc12)C(=O)N[C@@H](CC(C)C)C(=O)N[C@H](C(=O)N[C@@H](CCCNC(=N)N)C(=O)NCC(=O)N[C@@H](CCCNC(=N)N)C(=O)NCC(=O)O)C(C)C [semaglutide]
- Premature treatment discontinuations due to AEs ([8]; with SGLT-2i): 5.5%
- Premature treatment discontinuations due to AEs ([8]; without SGLT-2i): 13.4%

Compound: C/C=C(/C)C(=O)O[C@H]1C(C)=C2[C@H]([C@@H]1OC(=O)CCCCCCC)[C@@](C)(OC(C)=O)C[C@H](OC(=O)CCC)[C@@]1(O)[C@H]2OC(=O)[C@@]1(C)O [thapsigargin]
- Decrease of insulin mRNA expression (Ins1 and Ins2) (INS-1 832/13 cells): 85%
- Increase of Atf4 mRNA expression (INS-1 832/13 cells): 3.0 fold
- Increase of Atf6 mRNA expression (INS-1 832/13 cells): 1.8 fold
- Increase of Cebpg mRNA expression (INS-1 832/13 cells): 3.7 fold
- Increase of Xbp1s mRNA expression (INS-1 832/13 cells): 2.9 fold

Compound: Basal insulin Fc [BIF]
- HbA1c reduction from baseline to Week 32, mean±SE ([9]; BIF-A1, fasting glucose target ≤7.8 mmol/L): 0.6±0.1%
- HbA1c reduction from baseline to Week 32, mean±SE ([9]; BIF-A2, fasting glucose target ≤6.7 mmol/L): 0.6±0.1%

Compound: Insulin Degludec 100 U/mL [IDeg-100]
- Incidence rate of blood glucose <54 mg/dl [10]: 0.02 episodes per patient-months
- Incidence rate of blood glucose ≤70 mg/dl [10]: 0.14 episodes per patient-months
- FBG change at 6 months [10]: -61 mg/dL
- FBG reduction at 6 months [10]: 3.4 mmol/L
- HbA1c reduction from baseline to 12 months [10]: -1.44%
- HbA1c change from baseline to 6 months [10]: -1.69%

Compound: Insulin Glargine 300U/mL [Gla-300]
- Between group mean difference in HbA1c at 6 months, Gla-300 vs IDeg-100 ([10]; 95%CI -0.29;0.27): 0.01%
- Incidence rate of blood glucose <54 mg/dl [10]: 0.02 episodes per patient-months
- Incidence rate of blood glucose ≤70 mg/dl [10]: 0.13 episodes per patient-months
- FBG change at 6 months [10]: -63 mg/dL
- FBG reduction at 6 months [10]: 3.5 mmol/L
- HbA1c reduction from baseline to 12 months [10]: -1.71%
- HbA1c change from baseline to 6 months [10]: -1.70%

Compound: glucagon-like peptide 1 (HAEGTFTSDVSSYLEGQAAKEFIAWLVKGR; ends and bridges not checked; UniProt P01275 98-127, looked up) [GLP-1]
- Reduction of ERK1/2 activation in Arrb2-/- beta cells (Arrb2-/- beta cells): ~ 50%

Compound: insulin
- 2-NBD-Glucose uptake after insulin (H9C2 cells; H9C2, 20mM glucose 3 months): 17%
- 2-NBD-Glucose uptake after insulin (H9C2 cells; H9C2, 20mM glucose 6 months): 8%
- 2-NBD-Glucose uptake after insulin (H9C2 cells; H9C2, 30mM glucose 3 months): 15%
- 2-NBD-Glucose uptake after insulin (H9C2 cells; H9C2GLUT4, 20mM glucose 3 months): 31%
- 2-NBD-Glucose uptake after insulin (H9C2 cells; H9C2GLUT4, 20mM glucose 6 months): 27%
- 2-NBD-Glucose uptake after insulin (H9C2 cells; H9C2GLUT4, 30mM glucose 3 months): 43%

Compound: insulin glargine U100 [IGlar U100]
- Overall hypoglycaemic episode duration, median (IQR) [11]: 35.0 (20.0, 70.0) min
- Overall hypoglycaemic episode duration, median (IQR) [12]: 35.0 (20.0, 60.0) min
